Measurements reported in patent publication US20250026724A1, “(1,4,5-TRISUBSTITUTED 1H-PYRAZOL-3-YL)OXY-2-ALKYLTHIOALKYL ACIDS AND -ALKYL ACID DERIVATIVES, SALTS THEREOF AND USE THEREOF AS ACTIVE HERBICIDAL INGREDIENTS” (BAYER AKTIENGESELLSCHAFT, priority 2021, published 2025).

Assays:
Assay in all cases: Post-emergence herbicidal action, greenhouse pot trial
Assay type in all cases: in vivo
[1] = test system: Digitaria sanguinalis (DIGSA); conditions: visual rating after about 3 weeks; for pest or weed control at 320 g/ha: Digitaria sanguinalis, 504 h, read-out: Post-emergence effect at 320 g/ha against DIGSA in %
Description: (§1) Seeds of monocotyledonous and dicotyledonous weeds and crop plants are placed in sandy loam in plastic or organic planting pots, covered with soil and cultivated in a greenhouse under controlled growth conditions. 2 to 3 weeks after sowing, the trial plants are treated at the one-leaf stage. The compounds of the invention, formulated in the form of wettable powders (WP) or as emulsion concentrates (EC), are then sprayed onto the green parts of the plants as aqueous suspension or emulsion with addition of 0.5% additive at a water application rate equivalent to 600 l/ha. After about 3 weeks of keeping the trial plants in the greenhouse under optimum growth conditions, the effect of the preparations is rated visually in comparison to untreated controls. For example, 100% activity=the plants have died, 0% activity=like control plants.
(§2) Tables B1 to B14 below show the effects of selected compounds of the general formula (I) according to Table 1 on various harmful plants and at an application rate corresponding to 320 g/ha or lower, which were obtained by the trial procedure specified above. The appendices “a”, “b” and “c” give differentiation by dosage used with otherwise the same harmful plants tested.
(§3) As shown by results from Tables B1 to B19, inventive compounds of the general formula (I) in the case of post-emergence treatment have good herbicidal efficacy against harmful plants, for example Abutilon theophrasti (ABUTH), Alopecurus myosuroides (ALOMY), Amaranthus retroflexus (AMARE), Avena fatua (AVEFA), Digitaria sanguinalis (DIGSA), Echinochloa crus-galli (ECHCG), Bassia scoparia (KCHSC), Lolium rigidum (LOLRI), Matricaria inodora (MATIN), Pharbitis purpurea (PHBPU), Polygonum convolvulus (POLCO), Setaria viridis (SETVI), Veronica persica (VERPE) and Viola tricolor (VIOTR) at an application rate of 320 g of active substance or less per hectare, and good crop plant compatibility in the case of organisms such as Oryza sativa (ORYSA), Zea mays (ZEAMX), Brassica napus (BRSNW), Glycine max (GLXMA) and Triticum aestivum (TRZAS) at an application rate of 320 g or less per hectare.

Viola tricolor (VIOTR) = test system: Viola tricolor (VIOTR)
Description: as §1, §2, §3

[2] = test system: Polygonum convolvulus (POLCO); conditions: visual rating after about 3 weeks; for pest or weed control at 320 g/ha: read-out: Post-emergence effect at 320 g/ha against POLCO in %
Description: as §1, §2, §3

[3] = test system: Pharbitis purpurea (PHBPU); conditions: visual rating after about 3 weeks; for pest or weed control at 80 g/ha / pest or weed control at 320 g/ha: Ipomoea purpurea, 504 h; for pest or weed control at 80 g/ha: read-out: Post-emergence effect at 80 g/ha against PHBPU in %; for pest or weed control at 320 g/ha: read-out: Post-emergence effect at 320 g/ha against PHBPU in %
Description: as §1, §2, §3

[4] = test system: Amaranthus retroflexus (AMARE); conditions: visual rating after about 3 weeks; for pest or weed control at 80 g/ha / pest or weed control at 320 g/ha: Amaranthus retroflexus, 504 h; for pest or weed control at 80 g/ha: read-out: Post-emergence effect at 80 g/ha against AMARE in %; for pest or weed control at 320 g/ha: read-out: Post-emergence effect at 320 g/ha against AMARE in %
Description: as §1, §2, §3

[5] = test system: Abutilon theophrasti (ABUTH); conditions: visual rating after about 3 weeks; for pest or weed control at 320 g/ha: read-out: Post-emergence effect at 320 g/ha against ABUTH in %
Description: as §1, §2, §3

Setaria viridis (SETVI) = conditions: 320 g/ha, visual rating after about 3 weeks; for pest or weed control at 320 g/ha: Setaria viridis, 504 h, read-out: Post-emergence effect at 320 g/ha against SETVI in %
Description: as §1, §2, §3

[6] = test system: Echinochloa crus-galli (ECHCG); conditions: visual rating after about 3 weeks; for pest or weed control at 320 g/ha: read-out: Post-emergence effect at 320 g/ha against ECHCG in %
Description: as §1, §2, §3

[7] = test system: Matricaria inodora (MATIN); conditions: visual rating after about 3 weeks; for pest or weed control at 80 g/ha / pest or weed control at 320 g/ha: Tripleurospermum inodorum, 504 h; for pest or weed control at 80 g/ha: read-out: Post-emergence effect at 80 g/ha against MATIN in %; for pest or weed control at 320 g/ha: read-out: Post-emergence effect at 320 g/ha against MATIN in %
Description: as §1, §2, §3

Bassia scoparia (KCHSC) = conditions: Bassia scoparia, 504 h, read-out: Post-emergence effect against KCHSC
Description: as §1, §2, §3

Avena fatua (AVEFA) = conditions: Avena fatua, 504 h, 320 g/ha, visual rating after about 3 weeks, read-out: Post-emergence effect at 320 g/ha against AVEFA in %
Description: as §1, §2, §3

[8] = Viola tricolor, 504 h, 80 g/ha, read-out: Post-emergence effect against VIOTR
[9] = Viola tricolor, 504 h, 320 g/ha, read-out: Post-emergence effect against VIOTR
[10] = Fallopia convolvulus, 504 h, 320 g/ha
[11] = Abutilon theophrasti, 504 h, 320 g/ha
[12] = Echinochloa crus-galli, 504 h, 320 g/ha

Compound	pest or weed control at 320 g/ha ([1]; 320 g/ha)	pest or weed control at 80 g/ha (Viola tricolor (VIOTR); [8])	pest or weed control at 320 g/ha (Viola tricolor (VIOTR); [9])	pest or weed control at 320 g/ha [2, 10]	pest or weed control at 320 g/ha ([3]; 320 g/ha)	pest or weed control at 320 g/ha ([4]; 320 g/ha)	pest or weed control at 320 g/ha [5, 11]	pest or weed control at 320 g/ha (Setaria viridis (SETVI))	pest or weed control at 320 g/ha [6, 12]	pest or weed control at 320 g/ha ([7]; 320 g/ha)	other results
CCOC(=O)C(Oc1nn(-c2ncccc2F)c(-c2ccc(F)nc2)c1I)SC (stereo not drawn) [Example I-18]	80%	90%	90%	90%	90%	90%	90%	90%	100%	–	pest or weed control at 80 g/ha ([2]; Fallopia convolvulus, 504 h, 80 g/ha, read-out: Post-emergence effect at 80 g/ha against POLCO in %): 90%; pest or weed control at 80 g/ha [3]: 80%; pest or weed control at 80 g/ha [4]: 80%
COC(=O)C(Oc1nn(-c2cc(F)ccc2F)c(-c2cncc(F)c2)c1Br)SC (stereo not drawn) [Example I-07]	90%	90%	90%	–	–	–	–	90%	90%	90%	pest or weed control at 20 g/ha (Viola tricolor (VIOTR); Viola tricolor, 504 h, 20 g/ha, read-out: Post-emergence effect against VIOTR): 80%; pest or weed control at 80 g/ha [7]: 80%
CSC(Oc1nn(-c2ncccc2F)c(-c2ccc(F)nc2)c1Br)C(=O)O (single isomer, unassigned) [Example I-24]	90%	–	90%	90%	90%	80%	80%	90%	90%	80%	pest or weed control at 80 g/ha (Bassia scoparia (KCHSC)): 80%; pest or weed control at 320 g/ha (Bassia scoparia (KCHSC)): 80%; pest or weed control at 80 g/ha [3]: 90%; pest or weed control at 320 g/ha (Avena fatua (AVEFA)): 80%
CSC(Oc1nn(-c2ncccc2F)c(-c2ccc(F)nc2)c1C1CC1)C(=O)O (stereo not drawn) [Example I-33]	–	–	80%	–	–	–	–	–	80%	–	pest or weed control at 320 g/ha (Avena fatua (AVEFA)): 80%
CCOC(=O)C(Oc1nn(-c2ncccc2F)c(-c2ccc(F)nc2)c1C(F)(F)F)SC (stereo not drawn) [Example I-09]	–	–	90%	90%	90%	–	80%	–	80%	80%	–
CSC(Oc1nn(-c2ccccc2F)c(-c2ccc(F)nc2)c1I)C(=O)O (stereo not drawn) [Example I-21]	–	80%	90%	80%	–	90%	80%	90%	90%	–	–
CCOC(=O)C(Oc1nn(-c2cnccn2)c(-c2ccc(F)nc2)c1Br)SC (stereo not drawn) [Example I-17]	80%	–	–	–	80%	80%	–	80%	80%	–	pest or weed control at 80 g/ha [3]: 80%; pest or weed control at 320 g/ha (Avena fatua (AVEFA)): 80%
CCOC(=O)C(Oc1nn(-c2cc(F)ccc2F)c(-c2cncc(F)c2)c1I)SC (stereo not drawn) [Example I-02]	–	80%	90%	–	–	–	–	80%	90%	90%	pest or weed control at 80 g/ha [7]: 80%
CSC(Oc1nn(-c2ncccc2F)c(-c2ccc(F)nc2)c1C(F)(F)F)C(=O)O (stereo not drawn) [Example I-38]	–	–	90%	90%	–	–	80%	–	–	80%	–
CCOC(=O)C(Oc1nn(-c2ncccc2F)c(-c2ccc(F)cc2F)c1Br)SC (stereo not drawn) [Example I-14]	80%	–	–	90%	80%	80%	80%	80%	–	–	–
CCOC(=O)C(Oc1nn(-c2ncccc2F)c(-c2ccc(F)nc2)c1Br)SC (single isomer, unassigned) [Example I-29]	–	–	–	–	–	–	–	–	–	–	Post-emergence effect at 320 g/ha against DIGSA in % ([1]; 320 g/ha): 90%; pest or weed control at 80 g/ha (Bassia scoparia (KCHSC)): 80%; pest or weed control at 320 g/ha (Bassia scoparia (KCHSC)): 90%; Post-emergence effect against VIOTR (Viola tricolor (VIOTR); 80 g/ha): 80%; Post-emergence effect against VIOTR (Viola tricolor (VIOTR); 320 g/ha): 90%; Post-emergence effect at 80 g/ha against POLCO in % ([2]; 80 g/ha): 90%; Post-emergence effect at 320 g/ha against POLCO in % ([2]; 320 g/ha): 90%; Post-emergence effect at 320 g/ha against PHBPU in % ([3]; 320 g/ha): 90%; Post-emergence effect at 320 g/ha against AMARE in % ([4]; 320 g/ha): 80%; Post-emergence effect at 320 g/ha against ABUTH in % ([5]; 320 g/ha): 90%; Post-emergence effect at 320 g/ha against SETVI in % (Setaria viridis (SETVI)): 90%; Post-emergence effect at 320 g/ha against MATIN in % ([7]; 320 g/ha): 80%; Post-emergence effect at 320 g/ha against ECHCG in % ([6]; 320 g/ha): 90%
CCOC(=O)C(Oc1nn(-c2ccccc2F)c(-c2ccc(F)nc2)c1I)SC (stereo not drawn) [Example I-68]	80%	–	90%	80%	–	90%	–	90%	90%	–	–
CSC(Oc1nn(-c2ncccc2F)c(-c2ccc(F)nc2)c1Br)C(=O)O (stereo not drawn) [Example I-34]	90%	–	90%	90%	90%	80%	90%	90%	90%	80%	Post-emergence effect at 80 g/ha against DIGSA in % ([1]; 80 g/ha): 80%; pest or weed control at 320 g/ha (Bassia scoparia (KCHSC)): 80%; pest or weed control at 80 g/ha [3]: 80%; pest or weed control at 80 g/ha ([6]; Echinochloa crus-galli, 504 h, 80 g/ha, read-out: Post-emergence effect at 80 g/ha against ECHCG in %): 80%
CCOC(=O)C(Oc1nn(-c2ncccc2F)c(-c2ccc(F)nc2)c1C1CC1)SC (stereo not drawn) [Example I-20]	–	80%	90%	–	–	80%	90%	–	90%	–	pest or weed control at 80 g/ha [4]: 80%; pest or weed control at 80 g/ha ([5]; Abutilon theophrasti, 504 h, 80 g/ha, read-out: Post-emergence effect at 80 g/ha against ABUTH in %): 80%
